Experimental data reported in patent US12104192B2, “Method of preparing primary amines from amino acids using enzymatic conversion” (KOREA ADVANCED INSTITUTE OF SCIENCE AND TECHNOLOGY, priority 2020, dated 2024).

Each molecule was assayed on valine decarboxylase (assay: Enzymatic activity assay of purified valine decarboxylase with amino acid substrates, HPLC detection of primary amine). Conditions: 1 mM amino acid, 0.1 mM PLP, 150 μg purified his-tagged enzyme, 50 mM potassium phosphate buffer pH 7.5, 37° C., 2 hours.
Assay type: biochemical, Streptomyces viridifaciens
Description: An enzymatic activity assay was performed using a 50 mM potassium phosphate buffer (pH 7.5), and the substrate and enzyme used for the assay were added in the following amounts to the enzyme reaction solution.
Amino acids used as substrates were used at a concentration of 1 mM, and the amino acids used herein were L-alanine, L-2-aminobutyrate, 2-aminoisobutyrate, L-norvaline, L-valine, L-isovaline, L-norleucine, L-leucine, L-isoleucine, 1-aminocyclopentanecarboxylic acid, 1-aminocyclohexanecarboxylic acid, and L-2-phenylglycine. 0.1 mM pyridoxal phosphate (PLP) and 150 μg of the purified valine decarboxylase were added, followed by conducting reaction at 37° C. for 2 hours, and the sample after the reaction was analyzed by HPLC to identify primary amine.
Primary amine production was analyzed using HPLC (1100 Series HPLC; Agilent Technologies, Santa Clara, CA). The primary amine derivatization for analysis was performed in an automatic manner before analysis using an o-phthaldialdehyde (OPA; Sigma, St. Louis, MO) reagent. The OPA reagent for derivatization was prepared by dissolving 0.20 g of OPA reagent in 9.0 mL of methanol and then adding 1.0 mL of 0.40 M (pH 9.0) borate buffer and 160 μL of 2-mercaptoethanol thereto. For derivatization, 1 μL of the sample was mixed with 5 μL of 0.40 M (pH 9.0) borate buffer. Then, 1 μL of the OPA reagent for derivatization prepared above was added thereto, followed by HPLC analysis. Analysis was performed at 25° C. using an Eclipse plus C18 column (4.6×150 mm; Agilent Technologies). Solvent A for analysis was prepared by mixing 1.4 g/L of Na2HPO4 and 3.8 g/L of Na2B4O7·10H2O with 8 mg/L of NaN3, and adjusting the final pH of the resulting mixture to 7.2 using HCl. Solvent B was prepared by mixing 45% acetonitrile and 45% methanol with 10% H2O based on volume %. The solvent was fed at a rate of 2 mL/min. […] The derivatized secondary amines could be analyzed by detecting light with a wavelength of 230 nm using a variable wavelength detector (G1314A; Agilent Technologies).

Conversion of the amino acid substrate to the corresponding primary amine by valine decarboxylase, successfully converted:
NC1(C(=O)O)CCCCC1 [1-aminocyclohexanecarboxylic acid]
NC1(C(=O)O)CCCC1 [1-aminocyclopentanecarboxylic acid]
CC(C)(N)C(=O)O [2-aminobutyrate, 2-aminoisobutyrate]
N[C@H](C(=O)O)c1ccccc1 [L-2-phenylglycine]
C[C@H](N)C(=O)O [L-alanine]
CC[C@H](C)[C@H](N)C(=O)O [L-isoleucine]
CC[C@](C)(N)C(=O)O [L-isovaline]
CC(C)C[C@H](N)C(=O)O [L-leucine]
CCCC[C@H](N)C(=O)O [L-norleucine]
CCC[C@H](N)C(=O)O [L-norvaline]
CC(C)[C@H](N)C(=O)O [L-valine]
L-2-aminobutyrate
